Here are results for 39 molecules from patent US6855730B2, “3-methylidenyl-2-indolinone modulators of protein kinase” (Sugen, Inc., priority 1998, dated 2005).

SMILES strings stand for the structures. Where only a bound is given, the exact number is not on record here.

EGFR, sequence (P00533 25-1210): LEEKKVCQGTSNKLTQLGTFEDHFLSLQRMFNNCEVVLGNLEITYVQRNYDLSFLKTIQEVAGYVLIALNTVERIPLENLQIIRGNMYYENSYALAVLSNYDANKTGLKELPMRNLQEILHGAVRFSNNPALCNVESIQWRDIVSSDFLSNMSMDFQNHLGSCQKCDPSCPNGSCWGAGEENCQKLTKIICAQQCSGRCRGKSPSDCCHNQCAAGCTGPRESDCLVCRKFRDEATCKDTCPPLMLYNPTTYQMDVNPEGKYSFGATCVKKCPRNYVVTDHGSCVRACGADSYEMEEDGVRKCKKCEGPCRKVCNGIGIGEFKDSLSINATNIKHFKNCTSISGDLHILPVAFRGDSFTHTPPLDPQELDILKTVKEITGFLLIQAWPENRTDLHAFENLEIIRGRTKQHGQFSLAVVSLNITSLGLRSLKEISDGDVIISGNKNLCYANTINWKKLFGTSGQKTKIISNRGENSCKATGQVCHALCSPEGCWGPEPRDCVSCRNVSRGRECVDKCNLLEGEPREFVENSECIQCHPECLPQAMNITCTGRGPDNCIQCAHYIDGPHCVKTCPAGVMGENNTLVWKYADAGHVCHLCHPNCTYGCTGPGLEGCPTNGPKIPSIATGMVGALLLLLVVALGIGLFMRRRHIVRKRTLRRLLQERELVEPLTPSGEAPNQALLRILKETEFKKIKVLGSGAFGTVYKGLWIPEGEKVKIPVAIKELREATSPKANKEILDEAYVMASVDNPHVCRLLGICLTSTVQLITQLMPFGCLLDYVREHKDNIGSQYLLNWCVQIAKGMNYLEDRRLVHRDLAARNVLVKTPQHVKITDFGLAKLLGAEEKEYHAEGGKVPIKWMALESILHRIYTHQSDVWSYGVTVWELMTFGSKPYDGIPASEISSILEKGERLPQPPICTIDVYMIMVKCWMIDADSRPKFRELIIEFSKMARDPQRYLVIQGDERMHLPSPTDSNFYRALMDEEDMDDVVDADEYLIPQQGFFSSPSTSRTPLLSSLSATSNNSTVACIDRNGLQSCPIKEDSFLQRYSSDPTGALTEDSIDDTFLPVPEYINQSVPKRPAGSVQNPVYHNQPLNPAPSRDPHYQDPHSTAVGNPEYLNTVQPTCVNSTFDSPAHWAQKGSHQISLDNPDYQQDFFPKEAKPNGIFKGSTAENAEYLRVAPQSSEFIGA

For this assay, the target named is EGFR (Homo sapiens, UniProt P00533). Description: Biochemical EGFR assay (ELISA, A431 cell lysate). Set-up: A431 cell lysate (Screening Lab, SUGEN, Inc.); host or cells: A431. To be noted: read-out: bio EGFr IC50. The essentials:
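EGFR captured from A431 cell lysate onto anti-EGFR-coated plates, then incubated with test compound for 30 min at room temperature. Tyrosine phosphorylation with ATP/MnCl2 was stopped with EDTA after 5 min and detected by anti-phosphotyrosine ELISA with peroxidase/ABTS read-out.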
(In an ELISA, binding on a coated surface is turned into a signal by an enzyme label.)
As a reminder, the IC50 is the midpoint of a concentration-inhibition curve. For `COc1ccc2c(c1)/C(=C\c1cc(C(C)C)c(OC)c(C(C)C)c1)C(=O)N2` [Example 17, 3-(3,5-Diisopropyl-4-methoxybenzylidene)-5-methoxy-1,3-dihydroindol-2-one], the half-maximal inhibitory concentration (IC50) was above 100 µM.
As for `COc1ccc(/C=C2/C(=O)Nc3ccc(F)cc32)cc1C1CCCCC1` [Example 43, 3-(3-Cyclohexyl-4-methoxybenzylidene)-5-fluoro-1,3-dihydroindol-2-one], the figure is above 100 µM.
With `COc1ccc(/C=C2/C(=O)Nc3ccc(CCN4CCOCC4)cc32)cc1-c1ccsc1` [Example 26, 3-(4-Methoxy-3-thiophen-3-ylbenzylidene)-5-(2-morpholin-4-yl-ethyl)-1,3-dihydroindol-2-one] the figure was above 100 µM; with `COc1ccc(/C=C2/C(=O)Nc3ccccc32)cc1-c1ccccc1` [Example 65, 3-(6-Methoxybiphenyl-3-ylmethylene)-1,3-dihydroindol-2-one], above 100 µM.
With `COc1c(C)cc(/C=C2/C(=O)Nc3ncccc32)cc1C` [Example 56, 3-(4-Methoxy-3,5-dimethylbenzylidene)-1,3-dihydropyrrolo[2,3-b]pyridin-2-one] the figure was 10.1 µM; with `COc1ccc(/C=C2\C(=O)Nc3cccc(C)c32)cc1C(C)C` [Example 38, 3-(3-Isopropyl-4-methoxybenzylidene)-4-methyl-1,3-dihydroindol-2-one], above 100 µM; with `COc1cc(C)c(C=C2C(=O)Nc3cc(NC(C)=O)ccc32)cc1C(C)C` [Example 27, N-[3-(5-Isopropyl-4-methoxy-2-methyl-benzylidene)-2-oxo-2,3-dihydro-1H-indol-6-yl]-acetamide], above 100 µM.
With `COc1cc(C=C2C(=O)Nc3ccccc32)c(-c2ccccc2OC)cc1OC` [Example 49, 3-(4,5,2′-Trimethoxybiphenyl-2-ylmethylene)-1,3-dihydroindol-2-one], the IC50 is above 100 µM.
With `CCOC(=O)c1c(C)[nH]c(/C=C2\C(=O)Nc3cc(-c4ccccc4OC)ccc32)c1CCC(=O)O` [Example 110, 4-(2-Carboxyethyl)-5-[6-(2-methoxyphenyl)-2-oxo-1,2-dihydro-indol-3-ylidenemethyl]-2-methyl-1H-pyrrol-3-yl-carboxylic acid ethyl ester] the figure was above 100 µM.
Regarding `Cc1cccc2c1/C(=C/c1cc3ccccc3[nH]1)C(=O)N2` [Example 166, 3-(1H-indol-2-ylmethylene)-4-methyl-1,3-dihydro-indol-2-one], the half-inhibitory concentration (IC50) was above 100 µM.
With `COc1ccc(/C=C2/C(=O)Nc3ccccc32)cc1-c1ccsc1` [Example 35, 3-(4-Methoxy-3-thiophen-3-ylbenzylidene)-1,3-dihydroindol-2-one], the IC50 is above 100 µM.
`COc1c(C(C)C)cc(/C=C2/C(=O)Nc3cc(N)ccc32)cc1C(C)C` [Example 32, 6-Amino-3-(3,5-diisoprotyl-4-methoxy-benzylidene)-1,3-dihydroindol-2-one]: the IC50 was above 100 µM.
Consider `COc1ccc(/C=C2/C(=O)Nc3ccc(Cl)cc32)cc1-c1ccccc1` [Example 67, 5-Chloro-3-(6-methoxybiphenyl-3-ylmethylene)-1,3-dihydroindol-2-one], for which the IC50 was above 100 µM.
As for `COc1c(C(C)C)cc(/C=C2/C(=O)Nc3ncccc32)cc1C(C)C` [Example 74, 3-(3,5-Diisopropyl-4-methoxybenzylidene)-1,3-dihydropyrrolo[2,3-b]pyridin-2-one], the figure is 13.2 µM.
Turning to `COc1cc(C)c(/C=C2/C(=O)Nc3ncccc32)cc1C(C)C` [Example 45, 3-(5-Isopropyl-4-methoxy-2-methylbenzylidene)-1,3-dihydro-pyrrolo[2,3-b]pyridin-2-one], the IC50 came to 24 µM.
For the molecule `CCOC(=O)c1c(C)[nH]c(/C=C2\C(=O)Nc3cc(-c4ccc(F)cc4)ccc32)c1CCC(=O)O` [Example 108, 4-(2-Carboxyethyl)-5-[6-(4-fluorophenyl)-2-oxo-1,2-dihydro-indol-3-ylidenemethyl]-2-methyl-1H-pyrrole-3-carboxylic acid ethyl ester], the IC50 was above 100 µM.
As for `COc1cc(C)c(C=C2C(=O)Nc3ccccc32)cc1C(C)C` [Example 8, 3-(5-Isopropyl-4-methoxy-2-methylbenzylidene)-1,3-dihydroindol-2-one], the figure is above 100 µM; as for `Cc1cccc2c1/C(=C/c1ccc3c(c1)CCC(C)(C)O3)C(=O)N2` [Example 41, 3-(2,2-Dimethylchroman-6-ylmethylene)-4-methyl-1,3-dihydroindol-2-one], above 100 µM.
With `Cc1cc(CCC(=O)O)c(/C=C2\C(=O)Nc3ccc(Cl)cc32)[nH]1` [Example 111, 3-[2-(5-Chloro-2-oxo-1,2-dihydroindol-3-ylidenemethyl)-5-methyl-1H-pyrrol-3-yl]propionic acid] the figure was above 100 µM.
As for `CC1(C)CCc2cc(C=C3C(=O)Nc4ccc(Br)cc43)ccc2O1` (racemic) [Example 34, 5-Bromo-3-(2,2-dimethylchroman-6-ylmethylene)-1,3-dihydroindol-2-one], the figure is above 100 µM.
For the molecule `COc1c(C(C)C)cc(/C=C2/C(=O)Nc3cc(F)ccc32)cc1C(C)C` [Example 22, 3-(3,5-Diisopropyl-4-methoxybenzylidene)-6-fluoro-1,3-dihydroindol-2-one], the 50% inhibitory concentration (IC50) is above 100 µM.
As for `O=C1Nc2ccccc2/C1=C\c1ccc2c(c1)CCO2` [Example 66, 3-(2,3-Dihydrobenzofuran-5-ylmethylene)-1,3-dihydroindol-2-one], the figure is above 100 µM.
Take `CC(=O)Nc1ccc2c(c1)NC(=O)/C2=C/c1ccc(OCCN2CCOCC2)c(C(C)(C)C)c1` [Example 55, N-{3-[3-tert-Butyl-4-(2-morpholin-4-ylethoxy)-benzylidene]-2-oxo-2,3-dihydro-1H-indol-6-yl}-acetamide]: the half-maximal inhibitory concentration (IC50) was above 100 µM.
With `COc1ccc(/C=C2/C(=O)Nc3ccc(F)cc32)cc1-c1ccccc1` [Example 37, 5-Fluoro-3-(6-methoxybiphenyl-3-ylmethylene)-1,3-dihydroindol-2-one] the figure was above 100 µM; with `CCOc1cccc(-c2cc(OC)c(OC)cc2/C=C2/C(=O)Nc3ccccc32)c1` [Example 58, 3-(3′-Ethoxy-4,5-dimethoxybiphenyl-2-ylmethylene)-1,3-dihydroindol-2-one], above 100 µM.
With `COc1ccccc1-c1ccc2c(c1)NC(=O)/C2=C\c1[nH]c(C)cc1CCC(=O)O` [Example 109, 3-{2-[6-(2-Methoxyphenyl)-2-oxo-1,2-dihydroindol-3-ylidenemethyl]-5-methyl-1H-pyrrol-3-yl}-propionic acid] the figure was above 100 µM; with `CC1(C)CCc2cc(/C=C3/C(=O)Nc4ccc(F)cc43)ccc2O1` [Example 23, 3-(2,2-Dimethylchroman-6-ylmethylene)-5-fluoro-1,3-dihydroindol-2-one], above 100 µM; with `Cc1cccc2c1/C(=C/c1ccc3c(c1)CCO3)C(=O)N2` [Example 69, 3-(2,3-Dihydrobenzofuran-5-ylmethylene)-4-methyl-1,3-dihydroindol-2-one], above 100 µM.
For `COc1c(C(C)C)cc(/C=C2/C(=O)Nc3ccc(C)cc32)cc1C(C)C` [Example 19, 3-(3,5-Diisopropyl-4-methoxybenzylidene)-5-methyl-1,3-dihydroindol-2-one], the IC50 is above 100 µM.
With `COc1ccc(/C=C2/C(=O)Nc3ccccc32)cc1C(C)C` [Example 7, 3-(3-Isopropyl-4-methoxybenzylidene)-1,3-dihydroindol-2-one] the figure was above 100 µM; with `COc1c(C)cc(/C=C2/C(=O)Nc3ccc(Cl)cc32)cc1C` [Example 21, 5-Chloro-3-(4-methoxy-3,5-dimethylbenzylidene)-1,3-dihydroindol-2-one], above 100 µM.
`COc1c(C(C)C)cc(/C=C2/C(=O)Nc3cc(O)ccc32)cc1C(C)C` [Example 4, 3-(3,5-Diisopropyl-4-methoxybenzylidene)-6-hydroxy-1,3-dihydroindol-2-one]: the IC50 was above 100 µM.
With `O=C1Nc2ccc(F)cc2/C1=C\c1ccc2c(c1)CCO2` [Example 42, 3-(2,3-Dihydrobenzofuran-5-ylmethylene)-5-fluoro-1,3-dihydroindol-2-one] the figure was above 100 µM; with `COc1ccc(/C=C2\C(=O)Nc3cccc(C)c32)cc1C1CCCC1` [Example 48, 3-(3-Cyclopentyl-4-methoxybenzylidene)-4-methyl-1,3-dihydroindol-2-one], above 100 µM.
As for `CCOc1cccc(-c2cc(C=C3C(=O)Nc4ccccc43)ccc2OC)c1` [Example 46, 3-(3′-Ethoxy-6-methoxybiphenyl-3-ylmethylene)-1,3-dihydroindol-2-one], the figure is above 100 µM.
Take `COc1c(C(C)C)cc(/C=C2/C(=O)Nc3ccc(N)cc32)cc1C(C)C` [Example 20, 5-Amino-3-(3,5-diisopropyl-4-methoxy-benzylidene)-1,3-dihydroindol-2-one]: the half-inhibitory concentration (IC50) is above 100 µM.
With `COc1ccc(/C=C2/C(=O)Nc3ncccc32)cc1C1CCCC1` [Example 47, 3-(3-Cyclopentyl-4-methoxybenzylidene)-1,3-dihydropyrrolo[2,3-b]pyridin-2-one] the figure was 36.8 µM; with `O=C1Nc2ccc(Br)cc2/C1=C/c1cc2ccccc2[nH]1` [Example 165, 5-Bromo-3-(1H-indol-2-ylmethylene)-1,3-dihydro-indol-2-one], above 100 µM.
As for `COc1ccc(/C=C2/C(=O)Nc3ncccc32)cc1C(C)C` [Example 70, 3-(3-Isopropyl-4-methoxybenzylidene)-1,3-dihydropyrrolo[2,3-b]pyridine-2-one], the figure is 22.6 µM.
